Assay: xn = mol fraction of the nth substance listed
Conditions: 101 kPa, Liquid, Vibrating tube method

CCCCCCCCC [nonane] + CCCCCCCC
mass density [kg/m3]
Conditions | x2 = 0.1017 | x2 = 0.2023 | x2 = 0.3016 | x2 = 0.4 | x2 = 0.4987 | x2 = 0.6006 | x2 = 0.7002 | x2 = 0.7986 | x2 = 0.8989
273.15 K | 731.51 | 730.03 | 728.78 | 727.43 | 725.78 | 724.52 | 722.97 | 721.5 | 719.99
278.15 K | 727.69 | 726.2 | 724.94 | 723.57 | 721.91 | 720.65 | 719.08 | 717.59 | 716.07
283.15 K | 723.84 | 722.35 | 721.07 | 719.7 | 718.01 | 716.75 | 715.16 | 713.66 | 712.12
288.15 K | 719.99 | 718.48 | 717.19 | 715.8 | 714.11 | 712.83 | 711.22 | 709.71 | 708.16
293.15 K | 716.12 | 714.6 | 713.29 | 711.9 | 710.18 | 708.9 | 707.27 | 705.75 | 704.18
298.15 K | 712.24 | 710.7 | 709.38 | 707.97 | 706.24 | 704.95 | 703.31 | 701.76 | 700.18
303.15 K | 708.34 | 706.79 | 705.46 | 704.03 | 702.28 | 700.97 | 699.32 | 697.75 | 696.15
308.15 K | 704.41 | 702.86 | 701.51 | 700.07 | 698.3 | 696.98 | 695.31 | 693.73 | 692.11
313.15 K | 700.48 | 698.9 | 697.54 | 696.08 | 694.3 | 692.97 | 691.28 | 689.68 | 688.04
318.15 K | 696.52 | 694.93 | 693.55 | 692.08 | 690.27 | 688.92 | 687.22 | 685.6 | 683.95
323.15 K | 692.53 | 690.93 | 689.53 | 688.05 | 686.22 | 684.87 | 683.14 | 681.5 | 679.83
328.15 K | 688.53 | 686.91 | 685.49 | 683.99 | 682.15 | 680.78 | 679.03 | 677.37 | 675.69
333.15 K | 684.5 | 682.86 | 681.43 | 679.91 | 678.05 | 676.66 | 674.89 | 673.22 | 671.51
338.15 K | 680.44 | 678.78 | 677.34 | 675.8 | 673.91 | 672.5 | 670.73 | 669.03 | 667.3
343.15 K | 676.36 | 674.68 | 673.22 | 671.66 | 669.75 | 668.33 | 666.53 | 664.81 | 663.06
348.15 K | 672.25 | 670.55 | 669.07 | 667.5 | 665.56 | 664.12 | 662.3 | 660.56 | 658.78
353.15 K | 668.11 | 666.39 | 664.88 | 663.29 | 661.33 | 659.87 | 658.02 | 656.27 | 654.47
358.15 K | 663.93 | 662.18 | 660.67 | 659.05 | 657.07 | 655.6 | 653.72 | 651.94 | 650.1
363.15 K | 659.72 | 657.95 | 656.41 | 654.78 | 652.77 | 651.27 | 649.36 | 647.56 | 645.72

From the NIST ThermoML archive (doi:10.1021/je200373q)
